Laboratory results taken from patent US20260102425A1 (Allergan, Inc., priority 2018, published 2026).

Test system: Staphylococcus aureus ATCC 29213
Experiment: Time kill efficacy against Staphylococcus aureus ATCC 29213 (log drop after 30 seconds of exposure)
Type: cell-based
Method: Time kill efficacy experiments were performed against Staphylococcus aureus ATCC 29213 (S aureus). Plates with Tryptic Soy agar (TSA) were inoculated with cultures of S aureus and incubated at 30-35° C. for 24 hours. Bacterial cultures were harvested and sample suspensions were adjusted to contain approximately […] colony-forming units (CFU) per milliliter. […] After 30 seconds of exposure, 1 mL of the test suspension was removed and added to 9.0 ml of Dey-Engley neutralizer. One hundred μL of this neutralized suspension was plated in triplicates on TSA plates using an automated spiral plating instrument (Eddyjet 2, Neutec group Inc, New York, USA), with 7 log serial dilution mode. All bacterial plates were incubated at 30-35° C. for 2 days. The log drop values are determined as the difference between the logged CFU in the plates with and without the test article.

Substance: sodium chlorite
- Δ log reduction in the presence of 0.5% Brij 35 compared to alone (0.5% Brij 35 added to 5% povidone-iodine or to 8000 ppm sodium chlorite activated at pH 5, FIGS. 5A-5B): 1.6
- Δ log reduction in the presence of 0.5% Pluronic F-127 compared to alone (0.5% Pluronic F-127 added to 5% povidone-iodine or to 8000 ppm sodium chlorite activated at pH 5, FIGS. 5A-5B): 1.46
- Δ log reduction in the presence of 0.5% polysorbate 80 compared to alone (0.5% polysorbate 80 added to 5% povidone-iodine or to 8000 ppm sodium chlorite activated at pH 5, FIGS. 5A-5B): 2.9
- kill efficacy compared to sodium chlorite-only formulations and 5% povidone-iodine (800 ppm-8000 ppm sodium chlorite, pH 5 buffer, with 0.5% PS80, FIG. 2): more efficacious than sodium chlorite-only formulations
- kill efficacy compared to 5% povidone-iodine (4800 ppm and 6400 ppm sodium chlorite, pH 5 buffer, without PS80, FIG. 2): more efficacious than 5% povidone-iodine
- log reductions, alone (8000 ppm sodium chlorite activated at pH 5, alone, FIG. 5B): 2.0-3.0
- efficacy with 0.5% polysorbate 80 compared to formulations containing 0.5% Brij 35 or 0.5% Pluronic F-127 (8000 ppm sodium chlorite activated at pH 5, FIG. 5B): significantly greater
- log reduction (8000 ppm sodium chlorite activated with pH 2 buffer, 30 seconds exposure, FIG. 1, n=3): 5.0
- log reduction (8000 ppm sodium chlorite activated with pH 3 buffer, 30 seconds exposure, FIG. 1, n=3): 5.0
- log reduction (8000 ppm sodium chlorite activated with pH 4 buffer, 30 seconds exposure, FIG. 1, n=3): 5.0
- log reduction (8000 ppm sodium chlorite activated with pH 5 buffer, 30 seconds exposure, FIG. 1, n=3): 2.4
- effect of 0.5% PS80 on log reduction (8000 ppm sodium chlorite pH4, 10% FBS, 0.5% PS80, FIG. 6): significantly increased the log reduction
- bactericidal effectiveness on addition of PS80 at lower concentrations (8000 ppm sodium chlorite pH 4, 10% FBS, PS80 0.015% or 0.025%, FIG. 6): not significantly affected
- effect of the presence of FBS on log reduction (8000 ppm sodium chlorite pH 4 and 0.5% PS80, with 10% FBS, FIG. 6): essentially unaffected
- effect of added Brij 35 on kill efficacy (8000 ppm sodium chlorite pH 5 plus Brij 35 0.05%-0.5%, FIG. 3): enhanced the efficacy
- effect of added Pluronic F-127 on kill efficacy (8000 ppm sodium chlorite pH 5 plus Pluronic F-127 at 0.25% and 0.5%, FIG. 4, N=1): appeared to augment the efficacy
- log reduction (8000 ppm sodium chlorite, pH 4 buffer, absence of both 10% FBS and PS80, FIG. 6): about 5
- log reduction (8000 ppm sodium chlorite, pH 4 buffer, in the presence of 10% FBS (organic load), no PS80, FIG. 6): about 2
